Results from patent US20250324971A1, “HERBICIDAL DERIVATIVES” (SYNGENTA CROP PROTECTION AG, priority 2022, published 2025).

Assays:
Assay type in all cases: in vivo
Setaria faberi (SETFA) [1] = assay: Pre-Emergence Test (herbicidal, glasshouse pots); conditions: rate 250 g/ha, evaluated after 13 days, five-point scale
[2] = tested on: Ipomoea hederacea (IPOHE); assay: Pre-Emergence Test (herbicidal, glasshouse pots); conditions: rate 250 g/ha, evaluated after 13 days, five-point scale
[3] = tested on: Echinochloa crus-galli (ECHCG); assay: Pre-Emergence Test (herbicidal, glasshouse pots); conditions: rate 250 g/ha, evaluated after 13 days, five-point scale
[4] = tested on: Amaranthus retoflexus (AMARE); assay: Pre-Emergence Test (herbicidal, glasshouse pots); conditions: rate 250 g/ha, evaluated after 13 days, five-point scale
Zea mays (ZEAMX) [5] = assay: Pre-Emergence Test (herbicidal, glasshouse pots); conditions: rate 250 g/ha, evaluated after 13 days, five-point scale
[6] = tested on: Amaranthus palmeri (AMAPA); assay: Pre-Emergence Test (herbicidal, glasshouse pots); conditions: rate 250 g/ha, evaluated after 13 days, five-point scale
[7] = tested on: Amaranthus palmeri (AMAPA); assay: Post-Emergence Test (herbicidal, glasshouse pots); conditions: rate 250 g/ha; evaluated after 13 days
How it was run: (§1)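 Pots sown and sprayed with compound in acetone/water 50:50 with 0.5% Tween 20 at rates in g/ha, grown in glasshouse (24/16 °C, 14 h light, 65% humidity). Damage scored 13 days later on a five-point scale (5 = 81-100%, 1 = 0-20%).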

[8] = tested on: Amaranthus retoflexus (AMARE); assay: Post-Emergence Test (herbicidal, glasshouse pots); conditions: rate 250 g/ha; evaluated after 13 days
How it was run: as §1

[9] = tested on: Echinochloa crus-galli (ECHCG); assay: Post-Emergence Test (herbicidal, glasshouse pots); conditions: rate 250 g/ha; evaluated after 13 days
How it was run: as §1

[10] = tested on: Ipomoea hederacea (IPOHE); assay: Post-Emergence Test (herbicidal, glasshouse pots); conditions: rate 250 g/ha; evaluated after 13 days
How it was run: as §1

Setaria faberi (SETFA) [11] = assay: Post-Emergence Test (herbicidal, glasshouse pots); conditions: rate 250 g/ha; evaluated after 13 days
How it was run: as §1

Zea mays (ZEAMX) [12] = assay: Post-Emergence Test (herbicidal, glasshouse pots); conditions: rate 250 g/ha; evaluated after 13 days
How it was run: as §1

Row | Structure (SMILES) | percentage damage caused to the plant, SETFA (Setaria faberi (SETFA) [1]) | percentage damage caused to the plant, IPHOE [2] | percentage damage caused to the plant, ECHCG [3] | percentage damage caused to the plant, AMARE [4] | percentage damage caused to the plant, ZEAMX (Zea mays (ZEAMX) [5]) | percentage damage caused to the plant, AMAPA [6] | Post-Emergence Test AMAPA percentage damage (five-point scale) [7] | Post-Emergence Test AMARE percentage damage (five-point scale) [8] | Post-Emergence Test ECHCG percentage damage (five-point scale) [9] | Post-Emergence Test IPHOE percentage damage (five-point scale) [10] | Post-Emergence Test SETFA percentage damage (five-point scale) (Setaria faberi (SETFA) [11]) | Post-Emergence Test ZEAMX percentage damage (five-point scale) (Zea mays (ZEAMX) [12])
1 | CCn1cc(Oc2cc(=O)c(C(=O)O)c(-c3ccc(Cl)c(Cl)c3)n2CC)cn1 [Compound 59, 2-(3,4-dichlorophenyl)-1-ethyl-6-(1-ethylpyrazol-4-yl)oxy-4-oxo-pyridine-3-carboxylic acid] | 5 (5=81-100%) | 4 (4=61-80%) | 4 (4=61-80%) | 2 (2=21-40%) | 3 (3=41-60%) | 1 (1=0-20%) | 3 (3=41-60%) | 4 (4=61-80%) | 3 (3=41-60%) | 4 (4=61-80%) | 3 (3=41-60%) | 4 (4=61-80%)
2 | CCn1c(Oc2cc(Cl)n(C)n2)cc(=O)c(C(=O)O)c1-c1ccc(Cl)c(Cl)c1 [Compound 60, 6-(5-chloro-1-methyl-pyrazol-3-yl)oxy-2-(3,4-dichlorophenyl)-1-ethyl-4-oxo-pyridine-3-carboxylic acid] | 3 (3=41-60%) | 4 (4=61-80%) | 1 (1=0-20%) | 2 (2=21-40%) | 0 | 0 | 1 (1=0-20%) | 4 (4=61-80%) | 1 (1=0-20%) | 4 (4=61-80%) | 1 (1=0-20%) | 3 (3=41-60%)
3 | C/C=C(\C)COc1cc(=O)c(C(=O)O)c(-c2ccc(Cl)c(Cl)c2)n1CC [Compound 63, 2-(3,4-dichlorophenyl)-1-ethyl-6-[(E)-2-methylbut-2-enoxy]-4-oxo-pyridine-3-carboxylic acid] | 0 | 2 (2=21-40%) | 0 | 1 (1=0-20%) | 0 | 0 | 1 (1=0-20%) | 2 (2=21-40%) | 1 (1=0-20%) | 2 (2=21-40%) | 0 | 1 (1=0-20%)
